In patent publication US9707200B2, “Metabolism-improving agent comprising rare fatty acid” (KYOTO UNIVERSITY, priority 2012, dated 2017):

Legend:
[1] = biological target: T1, PPARα (Homo sapiens, UniProt Q07869); assay: PPARα ligand activity, GAL4-PPARα reporter luciferase assay in CV-1 cells; assay type: cell-based; details: 24 hr incubation, KetoA and HYA each at 30 μM, other fatty acids by a similar method
T1 construct: expressed in transfected cells; host or cells: CV-1 (African green monkey kidney)
T1 sequence (Q07869 239-466 limits assumed): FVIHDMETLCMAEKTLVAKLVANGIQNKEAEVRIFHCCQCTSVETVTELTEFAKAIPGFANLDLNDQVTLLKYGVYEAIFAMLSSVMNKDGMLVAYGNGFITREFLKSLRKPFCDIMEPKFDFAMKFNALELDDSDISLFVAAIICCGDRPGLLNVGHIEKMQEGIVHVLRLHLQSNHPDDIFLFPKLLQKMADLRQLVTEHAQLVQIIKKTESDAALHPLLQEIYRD
Protocol: (§1) To evaluate the function of oxo fatty acid and the like, PPARα, γ-activating action was measured first. The measurement was performed in reference to Nobuyuki Takahashi et al., FEES Letters 514 (2002) p. 315-322, “Dual action of isoprenols from herbal medicines on both PPARgamma and PPARalpha in 3T3-L1 adipocytes and HepG2 hepatocytes.”, the section of Materials and Methods “Reporter plasmids and luciferase assays”. To be specific, a plasmid containing DNA encoding a fused protein of PPARα, γ ligand binding region and GAL4 DNA binding region (pM-hPPARα or pM-hPPARγ), a reporter plasmid containing GAL4 binding DNA sequence linked to luciferase (p4xUASg-tk-luc), and internal control (pRL-CMV) to standardize transfection efficiency were introduced into CV-1 cell derived from the kidney of African green monkey. The ligand described below was added to the cells and, after incubation for 24 hr, luciferase activity was measured. As a ligand, KetoA and HYA were each added at 30 μM.
(§2) The concentration of the sample was adjusted with ethanol. Ethanol was used as a negative control, […], and GW7647 (10 nM) and Troglitazone (5 μM) were used as […].

[2] = biological target: T2, PPARγ (Homo sapiens, UniProt P37231); assay: PPARγ ligand activity, GAL4-PPARγ reporter luciferase assay in CV-1 cells; assay type: cell-based; details: 24 hr incubation, KetoA and HYA each at 30 μM, other fatty acids by a similar method
T2 construct: expressed in transfected cells; host or cells: CV-1 (African green monkey kidney)
T2 sequence (P37231 238-503 limits assumed): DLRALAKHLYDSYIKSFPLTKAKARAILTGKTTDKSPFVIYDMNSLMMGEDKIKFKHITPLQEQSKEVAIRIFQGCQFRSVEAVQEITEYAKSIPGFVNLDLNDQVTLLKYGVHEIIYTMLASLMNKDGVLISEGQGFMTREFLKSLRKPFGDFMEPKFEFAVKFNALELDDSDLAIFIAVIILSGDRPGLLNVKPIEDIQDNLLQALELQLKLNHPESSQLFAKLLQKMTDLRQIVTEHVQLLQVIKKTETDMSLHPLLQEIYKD
Protocol: as §1, §2

[3] = system: HepG2 cells; assay: Immature and mature SREBP-1 protein expression induced by LXR agonist, Western blot; assay type: cell-based, human; details: 10 nM T0901317 + 60 μM fatty acid, 24 hr; for immature SREBP-1 expression induced by LXR agonist: membrane fraction; for mature SREBP-1 expression induced by LXR agonist: nuclear fraction
Protocol: (§3) HepG2 cells (2.0×10^5 cells/mL) were cultured in DMEM medium containing 10% FES for 24 hr, and the medium was exchanged with 0.1% BSA-containing DMEM medium containing 10 nM LXR agonist T0901317 (Cayman Chemicals) and 60 μM various fatty acid. After culture for 24 hr, the cells were recovered, and total RNA was extracted using Sepasol reagent (Nacalai Tesque). After DNase treatment, reverse transcription was performed using SuperScriptII (Invitrogen) to give a cDNA solution. Using SYBR Green Mix (Bio-Rad, Richmond, Calif.) and gene-specific primer (Table 1), real-time PCR was performed as follows.
In addition, the protein expression level of immature and mature SREBP-1c was measured. Cells treated as mentioned above were dispersed in buffer A (250 mM sucrose, 10 mM HEPES-KOH, 10 mM KCl, 1.5 mM MgCl2, 1 mM EDTA-Na, 1 mM EGTA-Na, pH 7.6) containing a protease inhibitor, passed 20 times through a 23 gauge injection needle, and centrifuged (1,000×g, 4° C., 5 min) to separate into supernatant 1 and precipitate 1. The precipitate 1 was re-dissolved in buffer B (20 mM HEPES-KOH, 0.42 M NaCl, 2.5% glycerol, 1.5 mM MgCl2, 1 mM EDTA-Na, 1 mM EGTA-Na, pH 7.6), and centrifuged (10^5×g, 4° C., 15 min). The obtained supernatant 2 was used as a nuclear fraction (including mature form). The supernatant 1 was further centrifuged (10^5×g, 4° C., 15 min), and the obtained precipitate 2 was dissolved in cell lysate (10 mM Tris-HCl, 100 mM NaCl, 1% SDS, 1 mM EDTA-Na, 1 mM EGTA-Na) and used as a membrane fraction (including immature form). Using these as samples, measurement was performed by Western blot method using anti-SREBP-1 polyclonal antibody (Santa Cruz). Using Dual luciferase system (Promega), antagonizing action on LXR was evaluated by luciferase assay. p3xIR1-tk-Luc, pCMX-hLXRa, pRL-CMX were introduced into HepG2 cell. After culture in a 0.1% BSA-containing serum-free medium containing various fatty acids and T0901317 for 24 hr, the luciferase activity was measured.

[4] = system: HepG2 cells; assay: Intracellular triacylglycerol accumulation by LXR agonist; assay type: cell-based, human; details: 10 nM T0901317 + 60 μM fatty acid, 24 hr
Protocol: as §3
1. Reaction at 96° C., 15 min, 2. reaction at 96° C., 15 sec, 3. reaction at 60° C. for 30 sec, 4. measurement of fluorescence, 5. 2-4 were repeated 40 times, 6. the melting curve was measured from 65° C. to 95° C. at 0.4° C. intervals. As the internal standard, 18S rRNA was used. The genes involved in the fatty acid synthesis as measured were Sterol regulatory element binding protein-1c (SREBP-1c), Stearoyl coenzyme A desaturase-1 (SCD-1), Fatty acid synthase (FAS), and Acetyl CoA carboxylase-1 and -2 (ACC-1, 2). As for the amount of accumulated intracellular TG, the lipid was extracted with chloroform-methanol, and quantified by triglyceride-′E Test Wako (Wako Pure Chemical Industries, Ltd.).

SMILES	PPARα agonist activity (relative luciferase activity) [1]	PPARγ agonist activity (relative luciferase activity) [2]	immature SREBP-1 expression induced by LXR agonist [3]	mature SREBP-1 expression induced by LXR agonist [3]	suppression of intracellular triacylglycerol increase by LXR agonist [4]
CCCCC/C=C\CC(=O)CCCCCCCCC(=O)O [KetoA, 10-oxo-cis-12-octadecenoic acid]	strong PPARα and γ agonist activity	strong PPARα and γ agonist activity	strongly suppressed	strongly suppressed	significantly suppressed
CCCCC/C=C\CC(O)CCCCCCCCC(=O)O (stereo not drawn) [HYA, 10-hydroxy-cis-12-octadecenoic acid]	PPARα agonist activity	some PPARγ agonist activity	strongly suppressed	strongly suppressed	significantly suppressed
